Laboratory results published in ChEMBL document CHEMBL5634076, “Optimization of pyridylpiperazine-based inhibitors of the Escherichia coli AcrAB-TolC efflux pump” (Eur J Med Chem, 2023).
Converted amounts (≈) assume the structure as drawn.

Columns and labels:
Escherichia coli [1] = assay: Antibacterial activity against Escherichia coli BW25113 harboring acrB deletion mutant assessed as reduction in bacterial growth incubated for 20 hrs by resazurin microtitre assay; format: functional
Escherichia coli [2] = assay: Antibacterial activity against Escherichia coli BW25113 assessed as reduction in bacterial growth incubated for 20 hrs by resazurin microtitre assay; format: functional
Escherichia coli [3] = assay: Potentiation of oxacillin induced antibacterial activity in Escherichia coli BW25113 assessed as fold change in oxacillin MIC at 100 uM incubated for 20 hrs by resazurin microtitre assay; format: functional
Escherichia coli [4] = assay: Potentiation of ciprofloxacin induced antibacterial activity in Escherichia coli BW25113 assessed as ciprofloxacin MIC at 100 uM incubated for 20 hrs by resazurin microtitre assay (reference value: 0.01 ug/ml); format: functional
Escherichia coli [5] = assay: Potentiation of chloramphenicol induced antibacterial activity in Escherichia coli BW25113 assessed as fold change in chloramphenicol MIC at 100 uM incubated for 20 hrs by resazurin microtitre assay; format: functional
[6] = Solubility of compound in PBS at pH 7.4 incubated for 24 hrs by LC-MS/MS analysis; format: physicochemical
Escherichia coli [7] = assay: Potentiation of novobiocin induced antibacterial activity in Escherichia coli BW25113 assessed as novobiocin MIC at 100 uM incubated for 20 hrs by resazurin microtitre assay (reference value: 80 ug/ml); format: functional
Escherichia coli [8] = assay: Inhibition of AcrB Ser450Pro mutant in Escherichia coli BW25113 assessed as potentiation of pyridomycin-induced antibacterial activity incubated for 20 hrs by resazurin microtitre assay
Escherichia coli [9] = assay: Potentiation of fusidic acid induced antibacterial activity in Escherichia coli BW25113 assessed as fusidic acid MIC at 100 uM incubated for 20 hrs by resazurin microtitre assay (Rvb > 128 ug/ml); format: functional
Escherichia coli [10] = assay: Potentiation of linezolid induced antibacterial activity in Escherichia coli BW25113 assessed as fold change in linezolid MIC at 100 uM incubated for 20 hrs by resazurin microtitre assay; format: functional
Escherichia coli [11] = assay: Potentiation of piperacillin induced antibacterial activity in Escherichia coli BW25113 assessed as fold change in piperacillin MIC at 100 uM incubated for 20 hrs by resazurin microtitre assay; format: functional
Escherichia coli [12] = assay: Potentiation of erythromycin induced antibacterial activity in Escherichia coli BW25113 assessed as erythromycin MIC at 100 uM incubated for 20 hrs by resazurin microtitre assay (reference value: 128 ug/ml); format: functional
Escherichia coli [13] = assay: Inhibition of AcrB Ala446Pro mutant in Escherichia coli BW25113 assessed as potentiation of pyridomycin-induced antibacterial activity incubated for 20 hrs by resazurin microtitre assay
[14] = molecular target: T1, Multidrug efflux pump subunit AcrB (Escherichia coli (strain K12)) (UniProt P31224); assay: Potency index, ratio of BDM88832 EC90 to test compound EC90 for inhibition of AcrAB-TolC in Escherichia coli BW25113
T1 sequence (whole entry): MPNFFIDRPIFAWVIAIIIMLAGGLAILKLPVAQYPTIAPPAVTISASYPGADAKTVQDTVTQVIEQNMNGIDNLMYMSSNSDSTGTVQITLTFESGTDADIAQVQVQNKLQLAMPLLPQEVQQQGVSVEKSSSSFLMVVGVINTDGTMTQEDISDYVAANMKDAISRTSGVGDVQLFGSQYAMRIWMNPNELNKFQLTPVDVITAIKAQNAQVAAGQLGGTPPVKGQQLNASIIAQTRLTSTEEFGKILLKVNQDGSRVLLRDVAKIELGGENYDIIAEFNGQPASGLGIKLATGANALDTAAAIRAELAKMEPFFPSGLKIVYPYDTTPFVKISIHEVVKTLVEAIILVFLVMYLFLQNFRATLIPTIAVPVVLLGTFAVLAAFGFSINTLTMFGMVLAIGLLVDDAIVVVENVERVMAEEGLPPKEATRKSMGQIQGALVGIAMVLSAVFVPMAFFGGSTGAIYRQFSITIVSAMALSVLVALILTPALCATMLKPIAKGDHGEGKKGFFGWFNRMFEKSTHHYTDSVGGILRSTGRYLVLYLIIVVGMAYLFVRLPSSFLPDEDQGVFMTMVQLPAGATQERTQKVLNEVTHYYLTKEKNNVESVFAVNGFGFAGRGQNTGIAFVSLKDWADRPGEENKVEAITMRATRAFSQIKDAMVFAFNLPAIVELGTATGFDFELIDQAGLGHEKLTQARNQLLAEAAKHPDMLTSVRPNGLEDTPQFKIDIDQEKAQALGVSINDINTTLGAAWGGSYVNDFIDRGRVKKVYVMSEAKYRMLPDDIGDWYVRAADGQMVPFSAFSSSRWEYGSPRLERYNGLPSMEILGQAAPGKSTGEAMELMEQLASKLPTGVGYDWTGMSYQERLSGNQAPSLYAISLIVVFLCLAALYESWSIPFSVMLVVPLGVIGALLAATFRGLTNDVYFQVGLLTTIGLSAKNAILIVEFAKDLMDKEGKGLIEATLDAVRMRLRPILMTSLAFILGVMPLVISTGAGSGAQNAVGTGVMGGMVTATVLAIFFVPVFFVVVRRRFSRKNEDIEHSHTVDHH

Escherichia coli [15] = assay: Potentiation of ciprofloxacin induced antibacterial activity in Escherichia coli BW25113 assessed as fold change in ciprofloxacin MIC at 100 uM incubated for 20 hrs by resazurin microtitre assay; format: functional
[16] = molecular target: T1, Multidrug efflux pump subunit AcrB (Escherichia coli (strain K12)); assay: Inhibition of AcrB in Escherichia coli BW25113 assessed as potentiation of pyridomycin-induced antibacterial activity incubated for 20 hrs by resazurin microtitre assay
Escherichia coli [17] = assay: Inhibition of AcrB Glu947Gln mutant in Escherichia coli BW25113 assessed as potentiation of pyridomycin-induced antibacterial activity incubated for 20 hrs by resazurin microtitre assay
Escherichia coli [18] = assay: Selectivity ratio of EC90 for inhibition of AcrB Asp951Asn mutant in Escherichia coli BW25113 to inhibition of AcrB in Escherichia coli BW25113 incubated for 20 hrs by resazurin microtitre assay
Escherichia coli [19] = assay: Potentiation of chloramphenicol induced antibacterial activity in Escherichia coli BW25113 assessed as chloramphenicol MIC at 100 uM incubated for 20 hrs by resazurin microtitre assay (reference value: 8 ug/ml); format: functional
Escherichia coli [20] = assay: Potentiation of linezolid induced antibacterial activity in Escherichia coli BW25113 assessed as linezolid MIC at 100 uM incubated for 20 hrs by resazurin microtitre assay (Rvb > 128 ug/ml); format: functional
Escherichia coli [21] = assay: Potentiation of novobiocin induced antibacterial activity in Escherichia coli BW25113 assessed as fold change in novobiocin MIC at 100 uM incubated for 20 hrs by resazurin microtitre assay; format: functional
Escherichia coli [22] = assay: Selectivity ratio of EC90 for inhibition of AcrB Glu947Gln mutant in Escherichia coli BW25113 to inhibition of AcrB in Escherichia coli BW25113 incubated for 20 hrs by resazurin microtitre assay
Escherichia coli [23] = assay: Potentiation of erythromycin induced antibacterial activity in Escherichia coli BW25113 assessed as fold change in erythromycin MIC at 100 uM incubated for 20 hrs by resazurin microtitre assay; format: functional
Escherichia coli [24] = assay: Inhibition of AcrB Asp951Asn mutant in Escherichia coli BW25113 assessed as potentiation of pyridomycin-induced antibacterial activity incubated for 20 hrs by resazurin microtitre assay
Escherichia coli [25] = assay: Potentiation of oxacillin induced antibacterial activity in Escherichia coli BW25113 assessed as oxacillin MIC at 100 uM incubated for 20 hrs by resazurin microtitre assay (Rvb > 128 ug/ml); format: functional
Escherichia coli [26] = assay: Potentiation of fusidic acid induced antibacterial activity in Escherichia coli BW25113 assessed as fold change in fusidic acid MIC at 100 uM incubated for 20 hrs by resazurin microtitre assay; format: functional
Escherichia coli [27] = assay: Potentiation of piperacillin induced antibacterial activity in Escherichia coli BW25113 assessed as piperacillin MIC at 100 uM incubated for 20 hrs by resazurin microtitre assay (reference value: 4 ug/ml); format: functional
Escherichia coli [28] = assay: Antibacterial activity against Escherichia coli BW25113 assessed as reduction in bacterial growth incubated for 5 hrs by resazurin reduction assay; format: functional
[29] = molecular target: T1, Multidrug efflux pump subunit AcrB (Escherichia coli (strain K12)); assay: Inhibition of AcrB in Escherichia coli BW25113 assessed as potentiation of pyridomycin-induced antibacterial activity incubated for 5 hrs by resazurin reduction assay
[30] = Stability in CD-1 mouse liver microsomes assessed as intrinsic clearance at 1 uM measured up to 40 mins by LC-MS/MS analysis; format: ADME, Microsome; details: read-out: CLH
[31] = Stability in CD-1 mouse liver microsomes assessed as half life at 1 uM measured up to 40 mins by LC-MS/MS analysis; format: ADME, Microsome
[32] = Stability in mouse plasma assessed as half life at 10 uM measured up to 360 mins by LC-MS/MS analysis; format: ADME, cell-free
[33] = Solubility of compound in DMSO at > 125 uM; format: physicochemical

SMILES | MIC (Escherichia coli [2]) | fold change (FC) (Escherichia coli [3]) | MIC95 (Escherichia coli [4]) | fold change (FC) (Escherichia coli [5]) | solubility at 24 h [6] | MIC95 (Escherichia coli [7]) | EC90 (Escherichia coli [8]) | MIC95 (Escherichia coli [9]) | fold change (FC) (Escherichia coli [10]) | fold change (FC) (Escherichia coli [11]) | MIC95 (Escherichia coli [12]) | EC90 (Escherichia coli [13]) | fold change (FC) (Escherichia coli [15]) | EC90 [16] | EC90 (Escherichia coli [17]) | Ratio (Escherichia coli [18]) | MIC95 (Escherichia coli [19]) | MIC95 (Escherichia coli [20]) | fold change (FC) (Escherichia coli [21]) | Ratio (Escherichia coli [22]) | further results
CC/C(C)=C1\OC(=O)[C@H](C)[C@H](O)[C@H](Cc2cccnc2)NC(=O)[C@@H](NC(=O)c2ncccc2O)[C@@H](C)OC1=O [PYRIDOMYCIN] | 12.5 µg/mL |  |  |  |  |  |  |  |  |  |  |  |  |  |  |  |  |  |  |  | MIC (Escherichia coli [1]): 0.78 µg/mL (≈ 1.44 µM)
Cl.Cl.NCc1cccc(OC(=O)c2cnc(N3CCNCC3)c(Cl)c2)c1 | > 250 µM | >26 | < 0.005 µg/mL | 4 | 180 µM | 1.2 µg/mL | > 62 µM | 5 µg/mL | >16 | >8 | 4 µg/mL | > 62 µM | >2 | 0.6 µM | > 62 µM | 103 | 2 µg/mL | 8 µg/mL | 64 | > 103 | Ratio [14]: 20; fold change (FC) (Escherichia coli [23]): 32; EC90 (Escherichia coli [24]): 62 µM; MIC95 (Escherichia coli [25]): 5 µg/mL; fold change (FC) (Escherichia coli [26]): >26; MIC95 (Escherichia coli [27]): < 0.5 µg/mL
FC(F)(F)c1cnc(N2CCNCC2)c(Cl)c1 | > 250 µM |  |  |  |  |  |  |  |  |  |  |  |  |  |  |  |  |  |  |  | MIC90 (Escherichia coli [28]): > 500 µM; EC90 [29]: 62 µM
Cl.Cl.NCCc1nc(-c2cnc(N3CCNCC3)c(Cl)c2)no1 | > 250 µM | 3 | < 0.005 µg/mL | 4 | > 200 µM | 10 µg/mL | > 250 µM | 32 µg/mL | 8 | >8 | 16 µg/mL | > 250 µM | >2 | 8 µM | > 250 µM | > 31 | 2 µg/mL | 16 µg/mL | 8 | > 31 | microsomal CLint at 1 µM [30]: < 2 µL/min/mg; half-life at 1 µM [31]: > 0.667 h; fold change (FC) (Escherichia coli [23]): 8; half-life at 10 µM [32]: > 6 h; EC90 (Escherichia coli [24]): > 250 µM; MIC95 (Escherichia coli [25]): 40 µg/mL; fold change (FC) (Escherichia coli [26]): 4; MIC95 (Escherichia coli [27]): < 0.5 µg/mL
Cc1noc(-c2cnc(N3CCNCC3)c(Cl)c2)n1.Cl | > 125 µM |  |  |  |  |  |  |  |  |  |  |  |  | > 125 µM |  |  |  |  |  |  | solubility [33]: Soluble
